Experimental findings from patent US20260008760A1, “DIPEPTIDYL PEPTIDASE 1 INHIBITORS AND USES THEREOF” (Insmed Incorporated, priority 2024, published 2026) are described below.

The IC50 is the concentration needed to halve the response being measured. By inhibition is commonly meant the percentage by which the read-out fell short of the control. A high value points to a strong effect.

Assay [1] deals with T1, DPP1 in HL-60 cells (Homo sapiens, UniProt P53634). As to the kind of experiment: DPP1 Cell IC50 assay. The class given is cell-based. On the set-up: host or cells: HL-60 cells. As to conditions: 60 min pre-incubation, H-Gly-Phe-AFC substrate, average of n runs, read-out: Avg. IC50 (DPP1 Cell IC50 value ranges). The essentials: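 Intracellular DPP1 activity read as AFC fluorescence (Ex/Em 400/505 nm) after 30 min with H-Gly-Phe-AFC (500 μM stock), following 60 min compound pre-incubation at 37° C with HL-60 cells at 5×10^5 live cells per mL in PBS. IC50 by 4-parameter fit against DMSO-only controls.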
T1 sequence (P53634 25-463): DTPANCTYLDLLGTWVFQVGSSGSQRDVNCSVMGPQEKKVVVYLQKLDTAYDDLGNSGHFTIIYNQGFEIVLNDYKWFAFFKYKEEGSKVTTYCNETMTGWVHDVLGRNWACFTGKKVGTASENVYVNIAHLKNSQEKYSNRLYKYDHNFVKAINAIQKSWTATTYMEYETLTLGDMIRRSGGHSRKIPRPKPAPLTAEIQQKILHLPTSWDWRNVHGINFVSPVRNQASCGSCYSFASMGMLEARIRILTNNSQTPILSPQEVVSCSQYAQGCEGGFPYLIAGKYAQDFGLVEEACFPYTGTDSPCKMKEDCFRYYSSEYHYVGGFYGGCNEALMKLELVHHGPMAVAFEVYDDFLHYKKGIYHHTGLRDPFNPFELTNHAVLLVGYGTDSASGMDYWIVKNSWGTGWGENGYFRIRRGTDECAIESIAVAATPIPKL

The target of assay [2] is T1, DPP1 in HL-60 cells. As to the kind of experiment: DPP1 Cell Single-Point Percent Inhibition Testing. The class given is cell-based. On the set-up: host or cells: HL-60 cells. The following applies: final compound concentration 5 nM, n = 1. Put shortly: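 HL-60 cells in unsupplemented RPMI preincubated 60 min at 37 °C with test article (5 nM final, 0.1% DMSO), then given cell-permeable H-Gly-Phe-AFC (100 μM final) for 30 min. Fluorescence at 400/505 nm; percent inhibition versus vehicle after subtracting cell-free background and 10 μM brensocatib non-specific signal.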

For assay [3], the target named is human DPP1 enzyme (Homo sapiens, UniProt P53634). The assay can be described thus: Human DPP1 Enzyme IC50 Assay. In kind it is biochemical. Set-up: was first proteolytically processed into its mature form using recombinant human cathepsin L; purchased R&D Systems. As to conditions: activated recombinant human DPP1, 400 μM H-Gly-Arg-AMC, 10 minutes pre-incubation at 37° C., pH 6.0; average of n runs; read-out: Avg. IC50 (Human DPP1 enzyme IC50 value ranges). The essentials: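 IC50 came from a four-parameter fit of activity relative to no-compound control, with fluorescence (Ex 350/Em 450 nm) read every 5 min for 90 min at 37 °C using 400 μM final H-Gly-Arg-AMC. Cathepsin L-matured human recombinant DPP1 was preincubated 10 min with compound at pH 6.0 (MES, DTT, 1% DMSO).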
Sequence of human DPP1 enzyme (P53634 25-134 limits assumed): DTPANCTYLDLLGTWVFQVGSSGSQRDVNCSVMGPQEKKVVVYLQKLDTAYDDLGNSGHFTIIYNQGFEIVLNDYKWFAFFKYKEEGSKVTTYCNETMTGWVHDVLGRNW
Sequence of human DPP1 enzyme (P53634 231-394 limits assumed): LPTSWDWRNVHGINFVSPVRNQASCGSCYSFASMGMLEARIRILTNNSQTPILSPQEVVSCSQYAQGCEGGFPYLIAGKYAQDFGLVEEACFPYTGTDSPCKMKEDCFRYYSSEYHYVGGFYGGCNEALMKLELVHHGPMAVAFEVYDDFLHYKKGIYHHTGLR
Sequence of human DPP1 enzyme (P53634 395-463 limits assumed): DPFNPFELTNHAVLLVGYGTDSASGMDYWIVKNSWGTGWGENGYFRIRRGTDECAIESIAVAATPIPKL

`CN1CCCC2(C1)C(=O)N(C)c1ccc(-c3ccc(C[C@@H](C#N)NC(=O)[C@@H]4CNCCCO4)cc3)cc12` (stereo partly drawn) [Compound 18, (2S)—N-[(1S)-1-cyano-2-(4-{1,1′-dimethyl-2-oxospiro[indole-3,3′-piperidin]-5-yl}phenyl)ethyl]-1,4-oxazepane-2-carboxamide]: the IC50 in assay [1] was > 2.5 nM; in assay [3], > 15 nM. The inhibition at 0.005 µM in assay [2] was ≤ 76.5%.

`N#C[C@H](Cc1ccc(-c2cnc3c(n2)CCCC3)cc1)NC(=O)[C@@H]1CNCCCO1` [Compound A11, (2S)—N-[(1S)-1-cyano-2-[4-(5,6,7,8-tetrahydroquinoxalin-2-yl)phenyl]ethyl]-1,4-oxazepane-2-carboxamide]: the figures for the IC50 in assay [1] and in assay [3] were > 2.5 nM and > 15 nM, respectively. Further, in assay [2], the inhibition at 0.005 µM was ≤ 76.5%.
